Results as given in patent publication US9113629B2, “4-amino-6-(4-substituted-phenyl)-picolinates and 6-amino-2-(4-substituted-phenyl)-pyrimidine-4-carboxylates and their use as herbicides” (DOW AGROSCIENCES LLC, priority 2013, dated 2015).
Like-named read-outs stand apart in the source and are kept apart here.

Tests used:
[1] = system: Key Grass and Sedge Weeds as well as Grass Crops; experiment: Post-emergent Test II herbicidal activity (Table 6); type: in vivo; details: post-emergence, 336 h; for pest or weed control at 70 g/ha: 70 g ai/ha; for pest or weed control at 140 g/ha: 140 g ai/ha
Summary of the method: (§1)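 Foliar application at 187 L/ha to greenhouse-grown seedlings (first or second true leaf); subirrigation thereafter. Visual 0–100% injury at 14 d relative to untreated plants.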

[2] = system: Key Broadleaf Weed and Crop Species; experiment: Post-emergent Test II herbicidal activity (Table 5); type: in vivo; details: post-emergence, 336 h, 14 days after application; for pest or weed control at 70 g/ha: application rate 70 g ai/ha; for pest or weed control at 140 g/ha: application rate 140 g ai/ha
Summary of the method: as §1

[3] = CYPES: yellow nutsedge (Cyperus esculentus), read-out: Visual Growth Reduction (%) 14 Days After Application, CYPES
[4] = DIGSA: crabgrass (Digitaria sanguinalis), read-out: Visual Growth Reduction (%) 14 Days After Application, DIGSA
[5] = ECHCG: barnyardgrass (Echinochloa crus-galli), read-out: Visual Growth Reduction (%) 14 Days After Application, ECHCG
[6] = ORYSA: rice (Oryza sativa), crop, read-out: Visual Growth Reduction (%) 14 Days After Application, ORYSA
[7] = SETFA: giant foxtail (Setaria faberi), read-out: Visual Growth Reduction (%) 14 Days After Application, SETFA
[8] = SORVU: grain sorghum (Sorghum vulgare), read-out: Visual Growth Reduction (%) 14 Days After Application, SORVU
[9] = TRZSS (wheat, Triticum aestivum), crop, read-out: Visual Growth Reduction (%) 14 Days After Application, TRZSS
[10] = ZEAMX: maize, corn (Zea mays), crop, read-out: Visual Growth Reduction (%) 14 Days After Application, ZEAMX
[11] = ABUTH: velvetleaf (Abutilon theophrasti), read-out: Visual Growth Reduction (%) 14 Days After Application, ABUTH
[12] = AMARE: redroot pigweed (Amaranthus retroflexus), read-out: Visual Growth Reduction (%) 14 Days After Application, AMARE
[13] = BRSNN: oilseed-rape, canola (Brassica napus), read-out: Visual Growth Reduction (%) 14 Days After Application, BRSNN
[14] = CHEAL: lambsquarters (Chenopodium album), read-out: Visual Growth Reduction (%) 14 Days After Application, CHEAL
[15] = EPHHL: wild poinsettia (Euphorbia heterophylla), read-out: Visual Growth Reduction (%) 14 Days After Application, EPHHL
[16] = HELAN: sunflower (Helianthus annuus), read-out: Visual Growth Reduction (%) 14 Days After Application, HELAN
[17] = VIOTR: wild pansy (Viola tricolor), read-out: Visual Growth Reduction (%) 14 Days After Application, VIOTR

Structure (SMILES)	pest or weed control at 70 g/ha [1, 3] [%]	pest or weed control at 140 g/ha [1, 3] [%]	pest or weed control at 70 g/ha [1, 4] [%]	pest or weed control at 140 g/ha [1, 4] [%]	pest or weed control at 70 g/ha [1, 5] [%]	pest or weed control at 140 g/ha [1, 5] [%]	pest or weed control at 70 g/ha [1, 6] [%]	pest or weed control at 140 g/ha [1, 6] [%]	pest or weed control at 70 g/ha [1, 7] [%]	pest or weed control at 140 g/ha [1, 7] [%]	pest or weed control at 70 g/ha [1, 8] [%]	pest or weed control at 140 g/ha [1, 8] [%]	pest or weed control at 70 g/ha [1, 9] [%]	pest or weed control at 140 g/ha [1, 9] [%]	pest or weed control at 70 g/ha [1, 10] [%]	pest or weed control at 140 g/ha [1, 10] [%]	pest or weed control at 70 g/ha [2, 11] [%]	pest or weed control at 140 g/ha [2, 11] [%]	pest or weed control at 70 g/ha [2, 12] [%]	pest or weed control at 140 g/ha [2, 12] [%]	also measured
Nc1c(F)c(-c2ccc(I)cc2F)nc(C(=O)O)c1Cl [Compound 169]	95 to 100	95 to 100	75 to 84	85 to 94	75 to 84	75 to 84	30 to 44	30 to 44	95 to 100	95 to 100	95 to 100	95 to 100	30 to 44	45 to 59	95 to 100	95 to 100	85 to 94	85 to 94	95 to 100	95 to 100	pest or weed control at 70 g/ha [2, 13]: 95 to 100%; pest or weed control at 140 g/ha [2, 13]: 95 to 100%; pest or weed control at 70 g/ha [2, 14]: 95 to 100%; pest or weed control at 140 g/ha [2, 14]: 95 to 100%; pest or weed control at 70 g/ha [2, 15]: 95 to 100%; pest or weed control at 140 g/ha [2, 15]: 95 to 100%; pest or weed control at 70 g/ha [2, 16]: 95 to 100%; pest or weed control at 140 g/ha [2, 16]: 95 to 100%; pest or weed control at 70 g/ha [2, 17]: 95 to 100%; pest or weed control at 140 g/ha [2, 17]: 95 to 100%; melting point: 152 to 155 °C
C#Cc1ccc(-c2nc(C(=O)O)c(Cl)c(N)c2F)cc1F [Compound 71]	0 to 29	0 to 29	60 to 74	45 to 59	85 to 94	85 to 94	0 to 29	0 to 29	60 to 74	60 to 74	30 to 44	45 to 59	30 to 44	45 to 59	95 to 100	95 to 100	0 to 29	45 to 59	60 to 74	75 to 84	pest or weed control at 70 g/ha [2, 13]: 45 to 59%; pest or weed control at 140 g/ha [2, 13]: 45 to 59%; pest or weed control at 70 g/ha [2, 14]: 85 to 94%; pest or weed control at 140 g/ha [2, 14]: 85 to 94%; pest or weed control at 70 g/ha [2, 15]: 95 to 100%; pest or weed control at 140 g/ha [2, 15]: 95 to 100%; pest or weed control at 70 g/ha [2, 16]: 60 to 74%; pest or weed control at 140 g/ha [2, 16]: 75 to 84%; pest or weed control at 70 g/ha [2, 17]: 0 to 29%; pest or weed control at 140 g/ha [2, 17]: 0 to 29%; melting point: 157 to 160 °C (dec.)
